Here are results for five compounds from patent publication US20140315834A1 (Medicon Pharmaceuticals, Inc., priority 2012, published 2014).

The test system of one series is U87 glioblastoma cells. Nature of the series: Apoptosis by Annexin V-FITC / propidium iodide staining. Type of series: cell-based. The note with it: 24 hours; PGIA 4 200 μM, PV 116 40 μM, alone or combined. How it is done:
The potential synergy between PV and PGIA in inhibiting the growth of U87 glioblastoma cells was assessed by isobolographic analysis. After treatment with PV 116 or PGIA 4 alone or in combination for 24 hours, the following as determined: a) cell growth using the MTT assay (Promega, Madison, Wis.) and b) apoptosis by staining with Annexin V-FITC (Invitrogen) and propidium iodide 0.5 μg/ml and analyzing the fluorescence intensity by FACS caliber.

The subject of a further series is MDA. The series can be described thus: MDA breast sc xenograft. The note with it: 120 mg/kg/d × 22 d, ip.
In the next series the test system is BT-20. The series can be described thus: BT-20 breast sc xenograft. The note with it: Breast BT-20 sc; 120 mg/kg/d × 28 d, ip.
The test system of another series is HT-29. The series can be described thus: HT-29 colon sc xenograft. The note with it: Colon HT-29 sc; 120 mg/kg/d × 12 d, ip.
The subject of a further series is AGS. Type of series: in vivo, mice. The note with it: Gastric AGS sc, ip.
The next series deals with A549. Format: in vivo, mice. The note with it: Lung A549 ot, ip.
Another series relates to MCF7. The series can be described thus: MCF7 breast sc xenograft.
For another series, the system named is HCT116. Nature of the series: HCT116 colon xenograft. To be noted: Colon HCT116 sc; 100 mg/kg/d × 12 d, ip.
Series [1] is described as follows: Ulcerative colitis (IBD), DSS. To be noted: 300 mg/kg/d × 10 d, po.
The format of series [2] is in vivo, Lewis rats.
Series [3] has as its system U87 glioblastoma cell line. The series can be described thus: 24-hour growth inhibition of glioblastoma cells. The note with it: 24 h, read-out: 24-h 1c50. Type of series: cell-based.
A further series can be described thus: in vivo. To be noted: mouse.
A further series relates to U87. The series can be described thus: U87 glioma sc xenograft. To be noted: 20 mg/kg/d alone × 12 d, ip.
A short description of series [4]: Pharmacokinetics of phospho-sulindac in wild type and Ces1c knockout mice. Type of series: in vivo. To be noted: intraperitoneal and intravenous administration. An excerpt: This is reflected in the enhanced distribution of intact phospho-sulindac in various tissues.
In series [5] the test system is AGS human gastric xenografts. To be noted: nude mice; alone or with esterase inhibitor; cited from earlier work.
A short description of series [6]: Drug levels after inhalation vs oral administration of PS. Type of series: in vivo, mice.
For series [7], the system named is lung and pancreatic carcinoma (Lewis lung carcinoma). Nature of the series: Efficacy in Ces1c knockout vs wild type mice. Type of series: in vivo.
Series [8] in a line: Hydrolysis of PS in PLLA(10K)-PEG(2K) nanocarrier, control pharmacokinetic experiments. Type of series: in vivo. How it is done: Protection of phospho-NSAIDs from hydrolysis by encapsulation in nanocarriers enhances their anti-cancer efficacy. For example, PS was formulated in a nanocarrier suitable for iv administration [PLLA(10K)-PEG(2K)]. […] Nude mice bearing subcutaneous A549 human lung cancer xenografts were then given intravenously PS 60 mg/kg/d ×2d/week and the equimolar dose of sulindac (40 mg/kg.) Sulindac was ineffective in inhibiting the growth of the xenografts whereas PS was (32% vs. 75%; p<0.012). […] In other words, the anticancer efficacy of PS is not the result of its being metabolized to sulindac (Xie G, et al., Brit J. Pharmacol. 2012; 165:2152-66; Wong et al., J Pharmacol Exp Ther. 2012; 340:422-32).

Series [9] concerns A549 human lung cancer xenografts. Nature of the series: A549 sc xenografts, i.v. PS in nanocarrier vs sulindac. Format: in vivo, mice. To be noted: PS in nanocarrier, intravenously 60 mg/kg/d ×2d/week.
A short description of series [10]: Ferric chloride-induced carotid artery thrombus. Format: in vivo, mice. To be noted: oral, 40% of MTD, injury one hour later; FIG. 32B. As for the experimental part:
In this model the carotid artery is briefly exposed to FeCl3 leading to thrombus formation at the site of the injury and occlusion of blood flow. […] Flow rate was then measured for 30 minutes (FIG. 32).

The next series has as its system platelets. Nature of the series: Ex vivo platelet aggregometry, collagen agonist. Format: in vivo, mice. The note with it: 40% MTD; collagen 1 μg/mL. How it is done: Platelet aggregation was studied using an Aggregometer (Chrono-Log, Havertown, Pa.). […] Maximum inhibition of aggregation occurred at 1 hour post treatment (FIG. 34).
The test system of series [11] is A549 human lung cancer cells. The series can be described thus: Aerosol PS in orthotopic GFP-A549 lung cancer model. Type of series: in vivo, mice. To be noted: aerosol 50 mg/mL PS for 8 minutes, treatment group. How it is done:
PS dissolved in ethanol was placed in the baffle and aerosolized with the ultrasonic atomizer. […] The air flow in the system used to deliver by inhalation the test drug to mice was controlled by an inlet air regulator and a vacuum pump which draws air from the system.
Mice received 50 mg/mL PS for 8 minutes. After one week of treatment, 1 million A549 human lung cancer cells stably expressing green fluorescence protein (GFP-A549) were injected into the left lung through a 5 mm incision) was made to the left side of the chest. GFP allows the detection and quantification of these cells. […] Inhalation treatment, suspended for 2 days post-surgery, continued for 6 weeks.

A further series relates to A431. Type of series: in vivo, mice. To be noted: Skin A431 id; Topical, 2 week.

Read-outs that look alike come from different tables or passages of the source.

For the compound `CCCC(CCC)C(=O)Oc1ccc(COP(=O)(OCC)OCC)cc1` [Compound 116, Phosphovalproic Acid], in the series with U87 glioblastoma cells, the “fold-increase of annexinV (+) cells” value is listed as 3.0 fold. For the same compound, the Reduction with MDA amounted to 63%; in the series on BT-20 it was 37%; in the series on HT-29, 40%; in the series with AGS (100 mg/kg/d × 3 week), 81%; in the series with A549 (100 mg/kg/d × 6 week), 80%.

Turning to “phospho-aspirin glycerol amide [Compound 194]”, the Reduction was 55% in the series with MCF7 (120 mg/kg/d × 29 d, po, prevention); 80-100% with MCF7 (500 mg/kg/d × 12 d, ip, treatment); 18% in the series on HCT116; 30-48% in series [1]. Also, the “Latency, sec Mean ± SEM” value in series [2] (rat, in vivo, ip, 150 mg/kg) worked out at 19.92 ± 0.78 s.

Regarding `CCOP(=O)(OCC)OCC(CNC(=O)C(C)c1ccc(CC(C)C)cc1)OP(=O)(OCC)OCC` (stereo not shown) [Compound 4, Phospho-Ibuprofen Gylcerol Amide], in the series on U87 glioblastoma cells, the “fold-increase of annexinV (+) cells” value is on record as 1.8 fold. In [3], the IC50 amounted to 87 µM. The compound also returned an MTD at 12 days in “in vivo” (nude, ip) of 20 mg/kg/day. Also, the MTD at 1 week in the series “in vivo” (wt (wild type), po) is more than 600 mg/kg/day. Further, the Reduction in the series with U87 was 52%.

As to `CCOP(=O)(OCC)OCCCCOC(=O)CC1=C(C)/C(=C/c2ccc([S+](C)[O-])cc2)c2ccc(F)cc21` (stereo not shown) [Compound 96, Phospho-Sulindac], the “less inactivation in Ces1c knockout mice vs wild type” value in series [4] is listed as “approximately 2 fold”. Further, the “inhibition of growth of AGS xenografts” value in series [5] is reported as 28%. For the same compound, the “PS levels in plasma” value in series [6] (after inhalation or oral gavage) is on record as “Undetectable”. The “level of intact PS in the lungs” value was more than 20 nmol/g in series [6] (inhalational 6.5 mg/kg body weight) and less than 2 nmol/g in series [6] (oral 150 mg/kg body weight). Moreover, in series [6] (inhalational 6.5 mg/kg vs oral 150 mg/kg), the “total drug levels (PS plus metabolites) in lungs, inhalation compared to oral” value is recorded as “significantly higher”. Besides, the “efficacy against Lewis lung carcinoma (LLC) in Ces −/− mice” value in [7] (150 mg/kg, i.p., subcutaneous LLC tumors, FIG. 35) was “more efficacious”. Further, the “more effective in inhibiting growth of lung and pancreatic carcinoma in Ces1c knockout vs wild type mice” value in series [7] (mouse, in vivo) is listed as “approximately 2 fold”. For the same compound, the “PS in nanocarrier hydrolyzed to sulindac” value in series [8] was less than 6%. For the same compound, the “inhibition of growth of xenografts” value in series [9] is listed as 75%. The analgesic effect entry in series [2] (carboxylic esters, systemic, also topical in a hydrogel) is given as “effective”. In addition, the “carotid artery blood flow following injury with FeCl3” value in series [10] is given as “flow rate is maintained”. For the same compound, the “time of maximum inhibition of aggregation post treatment” value with platelets was 1 h. Besides, the “death rate by the end of the study” value in [11] was “less than 10%”. This compound also yielded a Bleeding time (150 mg/kg orally, 1 hour after administration) of 88 ± 7 s. The “prolongation of the bleeding time” value (treated mice) is given as “no prolongation of the bleeding time”.

With `CCOP(=O)(OCC)OCCCCNC(=O)C(C)c1ccc(CC(C)C)cc1` (stereo not shown) [Compound 1, Phosphoric acid diethyl ester 4-[2-(4-isobutyl-phenyl)-propionylamino]-butyl ester], the Reduction was determined as 46% with A431, 34% in the series on AGS (160 mg/kg/d × 3 week) and 75% in the series with A549 (160 mg/kg/d × 6 week). The compound further showed an MTD at 6 week in the series “in vivo” (nude, ip) of 160 mg/kg/day. Moreover, the “Latency, sec Mean ± SEM” value in [2] (Dose 120 mg/kg ip, 30 minutes prior to testing) stood at 23.42 ± 1.16 s.
